What all share (type): functional
The subject of test [1] is Rattus norvegicus. The test can be described thus: Paw swelling rats induced by Naja naja venom PLA2 when tested at 30 mg/kg ip. The note with it: route intraperitoneal.
Test [2] is described as follows: Tested for inhibitory activity against purified recombinant human placental PLA2 (r-hpPLA2).
The species named for test [3] is Rattus norvegicus. The test can be described thus: Paw volume in rat during treatment period.
Test [4] deals with T1, Phospholipase A2, membrane associated (Homo sapiens, UniProt P14555).
T1 sequence (P14555 whole entry): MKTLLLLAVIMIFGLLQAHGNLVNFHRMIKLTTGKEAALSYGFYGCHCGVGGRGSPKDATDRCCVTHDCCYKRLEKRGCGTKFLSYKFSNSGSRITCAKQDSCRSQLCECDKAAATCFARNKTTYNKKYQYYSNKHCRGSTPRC
The test can be described thus: Tested for inhibitory activity against human synovial fluid PLA2 (HSF-PLA2).

The compound `CCCCCCCCCCOc1cc(OCCCCCCCCCC)cc(N(CC(=O)O)CC(=O)O)c1` registered an inhibition in vivo at 30 mg/kg in test [1] of 41%. Besides, the 50% inhibitory concentration (IC50) in test [2] amounted to 87 nM; in test [4], 230 nM. In test [3], the Paw volume was 1 mL.
Compound `CCCCCCCCCCOc1cc(OCCCCCCCCCC)cc(C(=O)O)c1` gave a concentration for half-maximal inhibition (IC50) in test [4] of 3000 nM.

One may read the inhibition in vivo as the relative decrease from the control value, in per cent. A higher inhibition in vivo goes with a response far below the control. Usually IC50 stands for the concentration that gives 50% inhibition.

The values are drawn from ChEMBL document CHEMBL1126845, “N-(carboxymethyl)-N-[3,5-bis(decyloxy)-phenyl]glycine (Ro 23-9358): a potent inhibitor of secretory phospholipases A2 with antiinflammatory activity” (J Med Chem, 1993).
